Results from patent US8754226B2, “Piperidinyl-substituted lactams as GPR119 modulators” (Array BioPharma Inc., priority 2010, dated 2014).

System: modified version of the GPR119 receptor (94% identity to human receptor)
Experiment: cAMP production assay (LANCE cAMP kit, TR-FRET) in HEK-293 cells
Format: cell-based
Settings: for cAMP production in HEK-293 cells: HEK-293 cells stably expressing modified GPR119, test compounds 0.2 nM to 10 μM, one-hour incubation at ambient temperature; for Fold over baseline: increase in cAMP relative to basal levels, agonist activity if 1.5-fold or greater
Experimental: The assay utilized HEK-293 cells that stably express a modified version of the GPR119 receptor (94% identity to human receptor), under the control of a CMV promoter containing a tet-on element for tetracycline-inducible expression. GPR119 agonist-induced cyclic AMP (cAMP) production was measured in this cell line using the LANCE cAMP kit (Perkin Elmer, Waltham, Mass.). To generate a working stock of cells for the assay, cells were treated overnight with 1 μg/mL doxycycline at 37° C. in the presence of 5% CO2 to induce receptor expression. Cells were then harvested by enzymatic dissociation with 0.05% trypsin, resuspended in freezing medium (DMEM growth medium with 10% each of fetal bovine serum and DMSO), aliquoted and frozen at −80° C. On the day of the assay, frozen cells were thawed, washed 1× in PBS and resuspended in Hank's buffered salt solution (HBSS) containing 5 mM HEPES, 0.1% BSA and Alexa Fluor 647-conjugated anti-cAMP antibody (diluted 1:100). The cell suspension was then transferred to a Proxiplate Plus white 384-well assay plate (Perkin-Elmer) at 2000 cells/well. Test compounds at final concentrations ranging from 0.2 nM to 10 μM were added to the assay plate, followed by a one-hour incubation at ambient temperature (volume=10 μL/well). DMSO concentration was held constant at 0.5%. After incubation with test compounds, 10 μL of a detergent buffer containing a biotinylated cAMP/Europium-conjugated streptavidin complex (Europium-labeled cAMP tracer) were added to each well on the assay plate, followed by a 2-hour incubation at ambient temperature. During this incubation cAMP released from lysed cells competes with the Europium-labeled cAMP tracer for binding to the Alexa Fluor 647-conjugated antibody. […] Cellular cAMP levels were then determined by interpolation of raw signal data using a cAMP standard curve. Compounds were determined to have agonist activity if they stimulated a 1.5-fold or greater increase in cAMP relative to basal levels.

| SMILES | cAMP production in HEK-293 cells [nmol] | Fold over baseline |
| --- | --- | --- |
| CCc1cnc(N2CCC(N3CC[C@H](Oc4ccc(-n5nnnc5C)cc4)C3=O)CC2)nc1 [Example 70, (S)-1-(1-(5-ethylpyrimidin-2-yl)piperidin-4-yl)-3-(4-(5-methyl-1H-tetrazol-1-yl)phenoxy)pyrrolidin-2-one] | 6.1 | 1.8 |
| CS(=O)(=O)c1cc(F)c(N[C@H]2CCN(C3CCN(c4ncc(C(F)(F)F)cc4F)CC3)C2=O)c(F)c1 [Example 117, (S)-3-(2,6-difluoro-4-(methylsulfonyl)phenyl-amino)-1-(1-(3-fluoro-5-(trifluoromethyl)pyridin-2-yl)piperidin-4-yl)pyrrolidin-2-one] | 31.1 | 4.0 |
| CS(=O)(=O)c1ccc(N[C@@H]2CCN(C3CCN(c4cnc(Cl)cn4)CC3)C2=O)c(F)c1 [Example 118, (R)-1-(1-(5-chloropyrazin-2-yl)piperidin-4-yl)-3-(2-fluoro-4-(methylsulfonyl)phenyl-amino)pyrrolidin-2-one] | 40.6 | 3.4 |
| CS(=O)(=O)c1cc(F)c(N[C@H]2CCCN(C3CCN(c4ccc(C(F)(F)F)cn4)CC3)C2=O)cc1F [Example 54, (S)-3-(2,5-difluoro-4-(methylsulfonyl)phen-ylamino)-1′-(5-(trifluoromethyl)pyridin-2-yl)-[1,4′-bipiperidin]-2-one] | 7.3 | 2.3 |
| CCS(=O)(=O)c1ccc(N[C@H]2CCN(C3CCN(c4ncc(Cl)cc4C#N)CC3)C2=O)cn1 [Example 129, (S)-5-chloro-2-(4-(3-(6-(ethylsulfonyl)pyridin-3-ylamino)-2-oxopyrrolidin-1-yl)piperidin-1-yl)nicotinonitrile] | 28.4 | 2.1 |
| CCc1cnc(N2CCC(N3CC[C@H](Nc4ccc(S(C)(=O)=O)cc4F)C3=O)CC2)cn1 [Example 89, (S)-1-(1-(5-ethylpyrazin-2-yl)piperidin-4-yl)-3-(2-fluoro-4-(methylsulfonyl)phenyl-amino)pyrrolidin-2-one trifluoroactetate] | 23.1 | 4.8 |
| CC(O)c1cnc(N2CCC(N3CCC[C@H](Nc4cc(F)c(S(C)(=O)=O)cc4F)C3=O)CC2)nc1 (stereo partly drawn) [Example 64, (3S)-3-(2,5-difluoro-4-(methylsulfonyl)phenylamino)-1′-(5-(1-hydroxyethyl)pyrimidin-2-yl)-[1,4′-bipiperidin]-2-one] | 7.4 | 2.0 |
| CCc1cnc(N2CCC(N3CCC[C@H](Nc4ccc(S(C)(=O)=O)cc4C(F)(F)F)C3=O)CC2)nc1 [Example 55, (S)-1′-(5-ethylpyrimidin-2-yl)-3-(4-(methylsulfonyl)-2-(trifluoromethyl)phenylamino)-[1,4′-bipiperidin]-2-one] | 9.3 | 2.6 |
| CS(=O)(=O)c1ccc(N[C@H]2CCN(C3CCN(c4cnc(C(F)(F)F)nc4)CC3)C2=O)c(F)c1 [Example 158, (S)-3-(2-fluoro-4-(methylsulfonyl)phenylamino)-1-(1-(2-(trifluoromethyl)pyrimidin-5-yl)piperidin-4-yl)pyrrolidin-2-one] | 12.5 | 3.2 |
| O=C1[C@@H](Nc2ccc(C(F)(F)F)cn2)CCN1C1CCN(c2cnc(Cl)cn2)CC1 [Example 23, (S)-1-(1-(5-chloropyrazin-2-yl)piperidin-4-yl)-3-(5-(trifluoromethyl)pyridin-2-ylamino)pyrrolidin-2-one] | 13.6 | 3.0 |
| CS(=O)(=O)c1ccc(N[C@H]2CCN(C3CCN(c4ncc(Br)cn4)CC3)C2=O)c(F)c1 [Example 7, (S)-1-(1-(5-bromopyrimidin-2-yl)piperidin-4-yl)-3-(2-fluoro-4-(methylsulfonyl)phenylamino)pyrrolidin-2-one] | 7.7 | 2.4 |
| CS(=O)(=O)c1cc(F)c(O[C@H]2CCN(C3CCN(c4ncc(-c5ncccn5)cn4)CC3)C2=O)cc1F [Example 95, (S)-1-(1-(2,5′-bipyrimidin-2′-yl)piperidin-4-yl)-3-(2,5-difluoro-4-(methylsulfonyl)phenoxy)pyrrolidin-2-one] | 9.0 | 2.3 |
| N#Cc1ccc(N[C@H]2CCN(C3CCN(c4ncc(C(F)(F)F)cc4Cl)CC3)C2=O)c(F)c1 [Example 152, (S)-4-(1-(1-(3-chloro-5-(trifluoromethyl)pyridin-2-yl)piperidin-4-yl)-2-oxopyrrolidin-3-ylamino)-3-fluorobenzonitrile] | 26.6 | 3.3 |
| Cc1cnc(N2CCC(N3CCC[C@H](Nc4ccc(S(C)(=O)=O)cc4F)C3=O)CC2)nc1 [Example 43, (S)-3-(2-fluoro-4-(methylsulfonyl)phenylamino)-1′-(5-methylpyrimidin-2-yl)-[1,4′-bipiperidin]-2-one] | 6.9 | 1.7 |
| CS(=O)(=O)c1ccc(N[C@H]2CCCN(C3CCN(c4ncc(C(F)(F)F)cn4)CC3)C2=O)c(F)c1 [Example 41, (S)-3-(2-fluoro-4-(methyl-sulfonyl)phenylamino)-1′-(5-(trifluoromethyl)pyrimidin-2-yl)-1,4′-bipiperidin-2-one] | 7.4 | 1.7 |
| CS(=O)(=O)c1cc(F)c(OC2CCN(C3CCN(c4ncc(-c5ccccc5)cn4)CC3)C2=O)cc1F (stereo not drawn) [Example 88, 3-(2,5-difluoro-4-(methylsulfonyl)phenoxy)-1-(1-(5-phenylpyrimidin-2-yl)piperidin-4-yl)pyrrolidin-2-one trifluoroactetate] | 9.1 | 2.4 |
| CCc1cnc(N2CCC(N3CCC(Nc4ccc(S(C)(=O)=O)cc4F)C3=O)CC2)c(C)c1 (stereo not drawn) [Example 28, 1-(1-(5-ethyl-3-methylpyridin-2-yl)piperidin-4-yl)-3-(2-fluoro-4-(methylsulfonyl)phenylamino)pyrrolidin-2-one] | 39.4 | 4.0 |
| CS(=O)(=O)c1cc(F)c(O[C@H]2CCN(C3CCN(c4ncc(Br)cn4)CC3)C2=O)cc1F [Example 90, (S)-1-(1-(5-bromopyrimidin-2-yl)piperidin-4-yl)-3-(2,5-difluoro-4-(methylsulfonyl)phenoxy)pyrrolidin-2-one] | 11.7 | 2.7 |
| CS(=O)(=O)c1ccc(N[C@H]2CCN(C3CCN(c4ncc(C#N)cn4)CC3)C2=O)c(F)c1 [Example 8, (S)-2-(4-(3-(2-fluoro-4-(methylsulfonyl)phenylamino)-2-oxopyrrolidin-1-yl)piperidin-1-yl)pyrimidine-5-carbonitrile] | 8.6 | 2.5 |
| CS(=O)(=O)c1ccc(N[C@H]2CCN(C3CCN(c4ncc(Cl)cc4F)CC3)C2=O)c(F)c1 [Example 115, (S)-1-(1-(5-chloro-3-fluoropyridin-2-yl)piperidin-4-yl)-3-(2-fluoro-4-(methylsulfonyl)phenyl-amino)pyrrolidin-2-one] | 15.4 | 3.8 |
| CCCCCCCCCCc1cnc(N2CCC(N3CCC[C@H](Nc4cc(F)c(S(C)(=O)=O)cc4F)C3=O)CC2)nc1 [Example 46, (S)-1′-(5-decylpyrimidin-2-yl)-3-(2,5-difluoro-4-(methylsulfonyl)phenylamino)-[1,4′-bipiperidin]-2-one] | 10.7 | 2.2 |
| Cc1nnc(-c2ccc(O[C@H]3CCN(C4CCN(c5ncc(Cl)cn5)CC4)C3=O)c(F)c2)o1 [Example 72, (S)-1-(1-(5-chloropyrimidin-2-yl)piperidin-4-yl)-3-(2-fluoro-4-(5-methyl-1,3,4-oxadiazol-2-yl)Phenoxy)pyrrolidin-2-one] | 7.5 | 2.8 |
| CCc1cnc(N2CCC(N3CCC[C@H](N(C)c4cc(F)c(S(C)(=O)=O)cc4F)C3=O)CC2)nc1 [Example 78, (S)-3-((2,5-difluoro-4-(methylsulfonyl)phenyl)(methyl)amino)-1′-(5-ethylpyrimidin-2-yl)-[1,4′-bipiperidin]-2-one] | 13.6 | 3.4 |
| CCc1cnc(N2CCC(N3CCCC(Oc4cc(F)c(S(C)(=O)=O)cc4F)C3=O)CC2)nc1 (stereo not drawn) [Example 26, 3-(2,5-difluoro-4-(methylsulfonyl)phenoxy)-1′-(5-ethylpyrimidin-2-yl)-1,4′-bipiperidin-2-one] | 19.1 | 4.2 |
